Earlier results as cited in US6372499B1, “Polymeric complexes for the transfection of nucleic acids, with residues causing the destabilisation of cell membranes” (I.D.M. Immuno-Designed Molecules, priority 1996, dated 2002).

Assays:
[1] = persons, daily dose of 300 mg per day, after a few days
cells = conditions: after a few hours

CCN(CC)CCCC(C)Nc1ccnc2cc(Cl)ccc12 (stereo not drawn) [chloroquine]
plasma concentration [1]: about 0.7 μM | intracellular concentration relative to the concentration in the medium (cells): more than 100 times higher | intracellular concentration (cells; initial concentration 100 μM): exceed 10 mM
